Results: US6384080B1, “Anthranilic acid derivatives as inhibitors of the cGMP-phosphodiesterase” (Fujisawa Pharmaceutical Co., Ltd., priority 1998, dated 2002)

Experiments:
rabbit corpora cavernosa = experiment: Relaxation elicited by electrical field stimulation in rabbit corpora cavernosa; details: at 5×10^−8 M
Procedure: (b) Effect of test compounds on the relaxation elicited by electrical field stimulation in rabbit corpora cavernosa.
The rabbit erectile tissue strip prepared according to the method described by Italiano et al. (Pharmacological Research, 30, No 4, 1994) was placed 25 ml organ bath containing Krebs-Ringer solution. The bath was maintained at 37° C. and bubbled with 95% O2 and 5% CO2. The solution also contained atropine (1 μM) and guanethidine (50 μM). The erectile tissue strip was stretched with a resting force of 0.25 g, and isometric contraction were recorded via force development transducer on a recorder. The bipolar platinum electrode connected to the electric stimulator was placed around the strip.
The strip was equilibrated in the Krebs-Ringer solution for about 60 minutes and preconstricted by 0.1 mM norepinephrine to ascertain the responsibility of each preparation. The strip was washed several times, and then constricted by 0.1 mM norepinephrine. After getting stable contractile response to norepinephrine, the first electrical field stimulation (1 to 30 Hz, 20V, 0.5 msec duration, 90 sec interval) was delivered. 30 minutes after adding the tested compound, the second electrical field stimulation was delivered. […]

SD rat = type: in vivo; details: 32 mg/kg once a day for 14 consecutive days
Procedure: Toxicities of Compound (I)
Test on the toxicity by repetitive oral administration of the compounds, i.e., N-(3,4-dimethoxybenzyl)-2-(cis-4-hydroxycyclohexylamino)-5-nitrobenzamide and (R)-N-(3,4-dimethoxybenzyl)-2-(2-hydroxy-1-methylethylamino)-5-nitrobenzamide which were selected as representative compounds of this invention, in SD rat was conducted.

Male beagle = experiment: Duration of detumescence (T75) after cavernous nerve electrical stimulation in anesthetized beagle; type: in vivo; details: 0.1 mg/kg, i.v., cavernous nerve stimulation 7 Hz, 10 V, T75 = time from cessation of stimulation to 75% reduction of intracavernous pressure
Procedure: (c) Male beagle weighing 8.0-12.0 kg were anesthetized with pentobarbital sodium (35 mg/kg, i.v.). After tracheotomy, the animal was artificially ventilated using a volume-cycled ventilator. The femoral artery was cannulated for continuous blood pressure and heart rate monitoring. The femoral vein was cannulated for maintenance of anesthesia and administration of tested compound.
Either the left or right cavernous nerve was exposed posterolaterally to the prostate and a cuff electrode was placed around the nerve for electrical stimulation. A 21-gauge butterfly needle was placed in the corpus cavernousum and connected to a pressure transducer for intracavernous pressure. After a period of stabilization of all parameters, erection was induced by cavernous nerve electrically stimulation (7 Hz, 10 V) and the following was measured: the duration of detumescence (time (T75) from cessation of stimulation to 75% reduction of intracavernous pressure). The test compounds, i.e., N-(3,4-dimethoxybenzyl)-2-(cis-4-hydroxycyclohexylamino)-5-nitrobenzamide and (R)-N-(3,4-dimethoxybenzyl)-2-(2-hydroxy-1-methyl-ethylamino)-5-nitrobenzamide were each dissolved in 50% PEG400.

[1] = tested on: isolated rat corpora cavernosa; experiment: Nitroprusside-induced relaxation in isolated rat corpora cavernosa; design: species or system SD rat; details: in the presence of the test compound (5×10^−8 M); strip constricted by 0.1 mM norepinephrine; control preparation 20%
Procedure: (a) Effect of Test Compound on Nitroprusside or Ach-induced Relaxation in Isolated Rat Corpora Cavernosa.
Male SD rats were anesthetized with sodium pentobarbital 50 mg/kg intraperitoneally, and the corpora cavernosa was excised. The tunica albuginea was dissected according to the methods described by Italiano et al. (Pharmacological Research, 30, No. 4, 1994) and used for in vitro pharmacological study. The erectile tissue strip was placed in a 25 ml organ bath containing Krebs-Ringer solution. The bath was maintained at 37° C. and bubbled with 95% O2 and 5% CO2. The strip was stretched with a resting force of 0.25 g, and isometric contraction were recorded via force development transducer on a recorder.
The strip was equilibrated in the Krebs-Ringer solution for about 60 minutes, and preconstructed by 0.1 mM norepinephrine to ascertain the responsibility of each preparation. The strip was washed several times, and then constricted by 0.1 mM norepinephrine. After getting stable constrictile response to norepinephrine, the first dose-response curve for sodium nitroprusside or Ach(acetylcholine) was obtained. After washing a few times for 60 minutes, the strip was constricted by norepinephrine again, and the second dose-response curve for sodium nitroprusside or Ach was obtained. […]

| Compound | relaxation of corpora cavernosa elicited by electrical field stimulation (effect in words) (rabbit corpora cavernosa) | The dead (toxicity by repetitive oral administration) (SD rat) | mean of prolongation of T75 (Male beagle) [s] | Relaxant response elicited by 10 μM nitroprusside [1] [%] |
| --- | --- | --- | --- | --- |
| COc1ccc(CNC(=O)c2cc([N+](=O)[O-])ccc2N[C@H](C)CO)cc1OC [(R)-N-(3,4-Dimethoxybenzyl)-2-(2-hydroxy-(1-methylethylamino)-5-nitrobenzamide] | potentiated | could not be observed | 44 | 32 |
| COc1ccc(CNC(=O)c2cc([N+](=O)[O-])ccc2N[C@H]2CC[C@@H](O)CC2)cc1OC [N-(3,4-Dimethoxybenzyl)-2-(cis-4-hydroxycyclohexylamino)-5-nitrobenzamide] | potentiated | could not be observed | 52 |  |
